Data published in the NIST ThermoML archive (doi:10.1016/j.jct.2017.04.003).
± gives the expanded uncertainty stated by the source.

Normal melting temperature (Crystal 1, DTA): 666.6 ± 10 °C
Triple point temperature (Crystal 2, DSC): 756.8 ± 10 K
Structure (SMILES): [Na+].[Na+].[O-][O-] [sodium peroxide]
